The results in this text go back to patent publication US8916542B2, “Chitosan derivatives, compositions and related methods of use” (Synedgen, Inc., priority 2008, dated 2014).

Like-named read-outs stand apart in the source and are kept apart here.

Experiment [1] concerns Pseudomonas aeruginosa, PA01. Briefly: MIC of antibiotics with added chitosan-arginine (live/dead checkerboard). As to conditions: for factor of decrease of MIC: addition of 4 μg/ml chitosan-arginine. It counts as cell-based. As for the experimental part: The assay was conducted as follows. In each case, the minimum inhibitory concentration (MIC) in μg/ml was determined for the antibiotic alone against Pseudomonas aeruginosa.

For experiment [2], the system named is MMRSA. Nature of the experiment: Sensitization summary: MMRSA to Mupirocin. It counts as cell-based, Staphylococcus aureus. As to conditions: Mupirocin resistance breakpoint 8 μg/mL. The protocol: (§1) By definition, resistance is defined by a “resistance breakpoint” above which a bacterium is considered resistant (and is related to side effects and toxicity).
(§2) The plate was allowed to sit for 24 hours, before being centrifuged at 4000 RPM for 10 minutes, and resuspended in an appropriate enriched growth media (LB or Todd Hewitt Broth). The optical density of the plate was read over the course of 24 hours at 37° C. The optical density readings were used to compute a time to an arbitrary threshold of 0.25, which is correlated using a growth curve for this MMRSA, to virtual colony forming (vCFU) counts.

Experiment [3] relates to Mupirocin and Methicilin resistant Staphylcoccus aureus (MMRSA, 2-4C strain). Nature of the experiment: Checkerboard time course assay (vCFU) in water. It counts as cell-based, Staphylococcus aureus. As for the experimental part: as §2
The test system of experiment [4] is VRE (Vancomycin resistant Enterococcus). Briefly: Sensitization summary: VRE to Vancomycin. It counts as cell-based, Enterococcus faecium. As to conditions: for Antibiotic concentration (MIC) in presence of chitosan-arginine: 24 hour treatment.
Description: as §1

Experiment [5] deals with P. aeuriginosa strain PA01 (ATCC BAA-47). Briefly: Checkerboard assay chitosan-arginine and Tobramycin. It counts as cell-based. As to conditions: Pseudomonas aeruginosa, ATCCBAA47, read-out: Tobramycin (MIC), alone; determined alongside each C/A lot. As for the experimental part: Bacteria were incubated at 37° C. for the standard 20 hours.
P. aeuriginosa produces the fluorescent pigment pyocyanin, which can be correlated with bacterial growth.

Experiment [6] deals with K. pneumoniae. Nature of the experiment: Sensitization summary: K. pneumoniae to Gentamicin. It counts as cell-based, Klebsiella pneumoniae. The protocol: as §1
(§3) Approximately 10^5 cells were added to each of the wells. […] Optical density readings of the plate were taken, and averaged to determine inhibited samples Inhibition is defined by the final optical density (OD) being less than or equal to ½ the control OD.

The test system of experiment [7] is A. baumannii. Briefly: Sensitization summary: A. baumannii to Gentamicin. It counts as cell-based, Acinetobacter baumannii.
Description: as §1

For experiment [8], the system named is MRSA. Briefly: Sensitization summary: MRSA to Oxacillin. It counts as cell-based, Staphylococcus aureus. As for the experimental part: as §1, §3
Experiment [9] deals with MRSA strain MW-2 (ATCC BAA-1707). Briefly: Checkerboard vCFU assay chitosan-arginine and Oxacillin in PBS. As to conditions: alone. It counts as cell-based, Staphylococcus aureus. As for the experimental part:
Approximately 10^6 cells/mL were added to each well. Incubation occurred at ambient temperature for 20 h, then bacteria were centrifuged and resuspended in an appropriate growth media. The optical density (OD) was read over the course of 18 h at 37° C. The time (in seconds) to an arbitrary threshold OD of 0.15 was used with reference to a growth curve, to calculate the initial bacterial concentration of bacteria (vCFU).

Experiment [10] shares this test system. Briefly: Standard checkerboard assay in Mueller Hinton media, chitosan-arginine and Oxacillin. It counts as cell-based. As to conditions: Staphylococcus aureus. The protocol: Bacteria were incubated at 37° C. for the standard 20 hours. MRSA MIC values were obtained by OD595 (optical density). The entire experiment was repeated three times.
Experiment [11] shares this test system. Nature of the experiment: Chitosan-arginine/Oxacillin checkerboard growth inhibition assay. As to conditions: chitosan-arginine 1 μg/mL alone or Oxacillin 0.78 μg/mL alone. It counts as cell-based, Staphylococcus aureus. As for the experimental part: Approximately 10^5 cells was added to each of the wells. The optical density of the plate was read over the course of 24 hours at 37° C.

Setting [12] is: 0 μg/ml chitosan-arginine added (antibiotic alone).
Where [13] appears, read: 0.5 μg/ml chitosan-arginine added.
The mark [14] stands for this setting: 1 μg/ml chitosan-arginine added.
The mark [15] stands for this setting: 2 μg/ml chitosan-arginine added.
Setting [16] is: 4 μg/ml chitosan-arginine added, * = lowest value measured.
The mark [17] stands for this setting: with chitosan-arginine 0.125 μg/mL, 24 hour treatment.

Regarding Neomycin, the MIC of antibiotic was determined as 8 µg/mL in experiment [1] (setting [12]); 4 µg/mL in experiment [1] (setting [13]); 2 µg/mL in experiment [1] (setting [14]); 1 µg/mL in [1] (setting [15]); 0.5 µg/mL in experiment [1] (setting [16]). Moreover, the “factor of decrease of MIC” value in experiment [1] is 16.

Take `C/C(=C\C(=O)OCCCCCCCCC(=O)O)C[C@@H]1OC[C@H](C[C@@H]2O[C@H]2[C@@H](C)[C@H](C)O)[C@@H](O)[C@H]1O` [Mupirocin]: the “MIC of antibiotic alone against resistant bacteria” value (shortened to “MIC of antibiotic alone”) in [2] is recorded as “MMRSA (>64) μg/mL”. For the same compound, the “effect of mupirocin alone on MMRSA” value in [3] (1 μg/mL) was “completely ineffective”. Moreover, in [3] (doses below 64 to 128 μg/mL), the “antibacterial effectiveness of Mupirocin alone” value is listed as “ineffective”. Further, the “mupirocin concentration at which MMRSA is sensitive” value in experiment [3] (mupirocin alone, 24 hours in water) came out at 128 µg/mL. Also, in experiment [3] (with 4 μg/mL chitosan-arginine), the “lowest Mupirocin dose to which MMRSA is sensitized” value was found to be 8 µg/mL.

With `[Ag]` [Silver], the MIC of antibiotic in [1] (setting [12]) was 0.042 µg/mL; in [1] (setting [13]), 0.021 µg/mL; in experiment [1] (setting [14]) it was 0.021 µg/mL; in experiment [1] (setting [15]), 0.005 µg/mL; in experiment [1] (setting [16]) it was ≤ 0.001* μg/ml. In [1], the “factor of decrease of MIC” value is listed as at least 40.

On to `CN[C@H](CC(C)C)C(=O)N[C@H]1C(=O)N[C@@H](CC(N)=O)C(=O)N[C@H]2C(=O)N[C@H]3C(=O)N[C@H](C(=O)N[C@H](C(=O)O)c4cc(O)cc(O)c4-c4cc3ccc4O)[C@H](O)c3ccc(c(Cl)c3)Oc3cc2cc(c3O[C@@H]2O[C@H](CO)[C@@H](O)[C@H](O)[C@H]2O[C@H]2C[C@](C)(N)[C@H](O)[C@H](C)O2)Oc2ccc(cc2Cl)[C@H]1O` [Vancomycin], for which the “MIC of antibiotic alone” value in experiment [4] (VRE, Vancomycin resistance breakpoint 32 μg/mL) is “VRE (>32) μg/mL”. Further, the results for the “Antibiotic concentration (MIC) in presence of chitosan-arginine” value (shortened to “Antibiotic concentration (MIC)”) in experiment [4] (with chitosan-arginine 2 μg/mL) and in experiment [4] (with chitosan-arginine 4 μg/mL) were 2 µg/mL and 12.5 µg/mL, respectively.

Regarding `NC[C@H]1O[C@H](O[C@H]2[C@H](O)[C@@H](O[C@H]3O[C@H](CO)[C@@H](O)[C@H](N)[C@H]3O)[C@H](N)C[C@@H]2N)[C@H](N)C[C@@H]1O` [Tobramycin], the MIC in experiment [5] worked out at 0.5 µg/mL.

Gentamicin: the “MIC of antibiotic alone” value in experiment [6] (K. pneumoniae, Gentamicin resistance breakpoint 64 μg/mL) was “K. pneumoniae (64) μg/mL”; in experiment [7] (A. baumannii, Gentamicin resistance breakpoint 64 μg/mL), “A. baumannii (64) μg/mL”. In addition, the “Antibiotic concentration (MIC)” value in [6] (setting [17]) and in experiment [7] (setting [17]) was 16 µg/mL each time.

Turning to `Cc1onc(-c2ccccc2)c1C(=O)N[C@@H]1C(=O)N2[C@@H]1SC(C)(C)[C@@H]2C(=O)O` [Oxacillin], in experiment [8] (MRSA, Oxacillin resistance breakpoint 4 μg/mL), the “MIC of antibiotic alone” value is given as “MRSA (>25) μg/mL”. In experiment [8] (with chitosan-arginine 4 μg/mL, 24 hour treatment), the “Antibiotic concentration (MIC)” value worked out at 0.2 µg/mL. In addition, the bactericidal concentration in [9] was above 6.25 µg/mL. Further, the figures for the MIC in experiment [10] (read-out: MIC of Oxa alone) and in [10] (read-out: MIC of Oxa with C/A) were 4 µg/mL and 1 µg/mL, respectively. Further, the “effect on growth of the bacteria, agent alone” value in [11] is given as “Neither antimicrobial alone had a significant an effect”.

In the case of `O=C(O)c1cn(C2CC2)c2cc(N3CCNCC3)c(F)cc2c1=O` [Ciprofloxacin], the MIC of antibiotic in [1] (setting [12]) was 2 µg/mL; in experiment [1] (setting [13]) it was 1 µg/mL; in [1] (setting [14]), 1 µg/mL; in experiment [1] (setting [15]), “.5 µg/mL”. The “factor of decrease of MIC” value in experiment [1] is given as at least 80.

Turning to `CO[C@H]1/C=C/O[C@@]2(C)Oc3c(C)c(O)c4c(O)c(c(/C=N/N5CCN(C)CC5)c(O)c4c3C2=O)NC(=O)/C(C)=C\C=C\[C@H](C)[C@H](O)[C@@H](C)[C@@H](O)[C@@H](C)[C@H](OC(C)=O)[C@@H]1C` [Rifampicin], the MIC of antibiotic in experiment [1] (setting [12]) was found to be 8 µg/mL; in [1] (setting [13]) it was 4 µg/mL; in experiment [1] (setting [14]) it was 2 µg/mL; in experiment [1] (setting [15]), 1 µg/mL; in experiment [1] (setting [16]), 0.5 µg/mL. Also, the “factor of decrease of MIC” value in experiment [1] is listed as 16.
